Laboratory results reported in US20080194574A1, “Pyrazine Derivatives As Effective Compounds Against Infectious Diseases” (AXXIMA PHARMACEUTICALS AG, priority 2003, published 2008).
Where two headings read alike, the source gives them in different places.

Biological target: T1, viral kinase pUL-97 (Human cytomegalovirus, UniProt P16788)
T1 construct: The pUL-97 gene was cloned into a baculovirus vector; GST (glutathione S-transferase) (N); made in house; host or cells: Sf9 insect cells, baculovirus
Assay: UL97 kinase assay on Immobilon plate
Type: biochemical
Settings: inhibition of UL 97 kinase activity, read-out: Activity Class [A, B, C]
Summary of the method: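 Compound was titrated into a radiometric reaction of Sf9-expressed GST-UL97 kinase, incubated 1 h at 30 °C in Tris-HCl pH 7.5/MnCl2/DTT buffer before EDTA stop. MBP substrate and ATP (3 μM in the added assay buffer) were supplied with γ-[33P]ATP. Labelled product bound to Immobilon filter was washed and counted by scintillation.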

[1] = class by IC50 / % inhibition at 10 μM or 100 μM
[2] = class by IC50 / % inhibition at 10 or 100 μM

T1 sequence (P16788 whole entry): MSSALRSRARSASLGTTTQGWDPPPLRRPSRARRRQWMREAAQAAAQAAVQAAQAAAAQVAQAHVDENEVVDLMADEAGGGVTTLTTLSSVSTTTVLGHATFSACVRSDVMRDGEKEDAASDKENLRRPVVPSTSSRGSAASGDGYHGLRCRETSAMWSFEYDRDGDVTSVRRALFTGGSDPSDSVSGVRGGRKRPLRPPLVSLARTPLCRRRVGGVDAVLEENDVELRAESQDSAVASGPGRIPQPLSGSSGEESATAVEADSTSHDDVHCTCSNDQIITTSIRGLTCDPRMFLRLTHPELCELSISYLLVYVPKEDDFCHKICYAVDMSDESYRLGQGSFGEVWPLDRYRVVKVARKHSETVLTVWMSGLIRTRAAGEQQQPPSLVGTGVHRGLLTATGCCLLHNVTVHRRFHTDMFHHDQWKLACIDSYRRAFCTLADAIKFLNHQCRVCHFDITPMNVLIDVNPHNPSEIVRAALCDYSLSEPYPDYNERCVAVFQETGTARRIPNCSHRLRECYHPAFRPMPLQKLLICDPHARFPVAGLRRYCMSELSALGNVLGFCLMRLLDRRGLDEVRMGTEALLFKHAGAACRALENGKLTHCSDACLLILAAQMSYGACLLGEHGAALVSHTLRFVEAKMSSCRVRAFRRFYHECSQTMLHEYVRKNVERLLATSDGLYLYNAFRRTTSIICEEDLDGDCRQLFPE

CC(=O)c1ccc(N2CCN(c3cncc(-c4ccccc4Oc4ccccc4)n3)CC2)cc1 [compound 215, 1-{4-[6′-(2-Phenoxy-phenyl)-2,3,5,6-tetrahydro-[1,2′]bipyrazinyl-4-yl]-phenyl}-ethanone]
IC50 [1]: 10 to 100 µM

Fc1ccccc1N1CCN(c2cncc(-c3cc(C(F)(F)F)cc(C(F)(F)F)c3)n2)CC1 [compound 196, 6′-(3,5-Bis-trifluoromethyl-phenyl)-4-(2-fluoro-phenyl)-3,4,5,6-tetrahydro-2H-[1,2′]bipyrazinyl]
IC50 [2]: 10 to 100 µM

COc1ccc(N2CCN(c3cncc(-c4cc5ccccc5o4)n3)CC2)cc1 [compound 282, 6′-Benzofuran-2-yl-4-(4-methoxy-phenyl)-3,4,5,6-tetrahydro-2H-[1,2′]bipyrazinyl]
IC50 [1]: 1 to 10 µM

CC(=O)c1ccc(-c2cncc(N3CCN(c4cccc(Cl)c4)CC3)n2)cc1 [compound 103, 1-{4-[4-(3-Chloro-phenyl)-3,4,5,6-tetrahydro-2H-[1,2′]bipyrazinyl-6′-yl]-phenyl}-ethanone]
IC50 [2]: 1 to 10 µM

Cc1nc(C)c(N2CCN(c3ccncc3)CC2)nc1-c1cc2ccccc2s1 [compound 373, 6′-Benzo[b]thiophen-2-yl-3′,5′-dimethyl-4-pyridin-4-yl-3,4,5,6-tetrahydro-2H-[1,2′]bipyrazinyl]
IC50 [1]: 10 to 100 µM

CC(=O)c1ccccc1-c1cncc(N2CCN(c3cccc(Cl)c3)CC2)n1 [compound 236, 1-{2-[4-(3-Chloro-phenyl)-3,4,5,6-tetrahydro-2H-[1,2′]bipyrazinyl-6′-yl]-phenyl}-ethanone]
IC50 [1]: 10 to 100 µM

COc1cccc(-c2cncc(N3CCN(c4ccccn4)CC3)n2)c1 [compound 304, 6′-(3-Methoxy-phenyl)-4-pyridin-2-yl-3,4,5,6-tetrahydro-2H-[1,2′]bipyrazinyl]
IC50 [1]: 1 to 10 µM

CCOc1ccc(-c2cncc(N3CCN(c4cccc(Cl)c4)CC3)n2)cc1 [compound 129, 4-(3-Chloro-phenyl)-6′-(4-ethoxy-phenyl)-3,4,5,6-tetrahydro-2H-[1,2′]bipyrazinyl]
IC50 [2]: 1 to 10 µM

COc1ccc(-c2cncc(N3CCN(c4ccncc4)CC3)n2)cc1OC [compound 77, 6′-(3,4-Dimethoxy-phenyl)-4-pyridin-4-yl-3,4,5,6-tetrahydro-2H-[1,2′]bipyrazinyl]
IC50 [2]: < 1 µM

Cc1cccc(-c2cncc(N3CCN(c4cnccn4)CC3)n2)c1 [compound 329, 6-m-Tolyl-2′,3′,5′,6′-tetrahydro-[2,1′;4′,2″]terpyrazine]
IC50 [1]: 1 to 10 µM

COc1ccc2cc(-c3cncc(N4CCN(c5ccccc5OC)CC4)n3)ccc2c1 [compound 187, 6′-(6-Methoxy-naphthalen-2-yl)-4-(2-methoxy-phenyl)-3,4,5,6-tetrahydro-2H-[1,2′]bipyrazinyl]
IC50 [2]: 10 to 100 µM

COc1cccc(-c2cncc(N3CCN(c4ccc(OC)c(OC)c4)CC3)n2)c1 [compound 134, 4-(3,4-Dimethoxy-phenyl)-6′-(3-methoxy-phenyl)-3,4,5,6-tetrahydro-2H-[1,2′]bipyrazinyl]
IC50 [2]: 1 to 10 µM

FC(F)(F)c1ccc(-c2cncc(N3CCN(c4cccc(Cl)c4)CC3)n2)cc1 [compound 184, 4-(3-Chloro-phenyl)-6′-(4-trifluoromethyl-phenyl)-3,4,5,6-tetrahydro-2H-[1,2′]bipyrazinyl]
IC50 [2]: 10 to 100 µM

COc1ccc(N2CCN(c3cncc(-c4ccc(C)cc4)n3)CC2)cc1OC [compound 224, 4-(3,4-Dimethoxy-phenyl)-6′-p-tolyl-3,4,5,6-tetrahydro-2H-[1,2′]bipyrazinyl]
IC50 [1]: 1 to 10 µM

CC(=O)c1ccc(N2CCN(c3cncc(-c4cccc(F)c4)n3)CC2)cc1 [compound 214, 1-{4-[6′-(3-Fluoro-phenyl)-2,3,5,6-tetrahydro-[1,2′]bipyrazinyl-4-yl]-phenyl}-ethanone]
IC50 [1]: 10 to 100 µM

Cc1ccccc1-c1cncc(N2CCN(c3ccccc3)CC2)n1 [compound 94, 4-Phenyl-6′-o-tolyl-3,4,5,6-tetrahydro-2H-[1,2′]bipyrazinyl]
IC50 [2]: 10 to 100 µM

Fc1ccc(-c2cncc(N3CCN(c4ccc(F)cc4)CC3)n2)cc1 [compound 138, 4,6′-Bis-(4-fluoro-phenyl)-3,4,5,6-tetrahydro-2H-[1,2′]bipyrazinyl]
IC50 [2]: 10 to 100 µM

CCOc1ccc(-c2cncc(N3CCN(c4ccc(F)cc4F)CC3)n2)cc1 [compound 203, 4-(2,4-Difluoro-phenyl)-6′-(4-ethoxy-phenyl)-3,4,5,6-tetrahydro-2H-[1,2′]bipyrazinyl]
IC50 [1]: 10 to 100 µM

COc1ccc(N2CCN(c3cncc(-c4ccc(C(F)(F)F)cc4)n3)CC2)cc1 [compound 355, 4-(4-Methoxy-phenyl)-6′-(4-trifluoromethyl-phenyl)-3,4,5,6-tetrahydro-2H-[1,2′]bipyrazinyl]
IC50 [1]: 1 to 10 µM

COc1ccccc1N1CCN(c2cncc(-c3ccccc3C)n2)CC1 [compound 87, 4-(2-Methoxy-phenyl)-6′-o-tolyl-3,4,5,6-tetrahydro-2H-[1,2′]bipyrazinyl]
IC50 [2]: 10 to 100 µM

Clc1cccc(N2CCN(c3cncc(-c4ccccc4Oc4ccccc4)n3)CC2)c1 [compound 185, 4-(3-Chloro-phenyl)-6′-(2-phenoxy-phenyl)-3,4,5,6-tetrahydro-2H-[1,2′]bipyrazinyl]
IC50 [2]: 10 to 100 µM

c1ccc2sc(-c3cncc(N4CCN(c5ccncc5)CC4)n3)cc2c1 [compound 69, 6′-Benzo[b]thiophen-2-yl-4-pyridin-4-yl-3,4,5,6-tetrahydro-2H-[1,2′]bipyrazinyl]
IC50 [2]: < 1 µM

Fc1ccc(N2CCN(c3cncc(-c4ccoc4)n3)CC2)c(F)c1 [compound 201, 4-(2,4-Difluoro-phenyl)-6′-furan-3-yl-3,4,5,6-tetrahydro-2H-[1,2′]bipyrazinyl]
IC50 [1]: 1 to 10 µM

COc1ccc(N2CCN(c3cncc(-c4ccccc4CO)n3)CC2)cc1OC [compound 264, {2-[4-(3,4-Dimethoxy-phenyl)-3,4,5,6-tetrahydro-2H-[1,2′]bipyrazinyl-6′-yl]-phenyl}-methanol]
IC50 [1]: 10 to 100 µM

COc1ccccc1N1CCN(c2cncc(-c3ccc(C)cc3)n2)CC1 [compound 241, 4-(2-Methoxy-phenyl)-6′-p-tolyl-3,4,5,6-tetrahydro-2H-[1,2′]bipyrazinyl]
IC50 [1]: 10 to 100 µM

c1ccc(N2CCN(c3cncc(-c4ccc5ccccc5c4)n3)CC2)cc1 [compound 93, 6′-Naphthalen-2-yl-4-phenyl-3,4,5,6-tetrahydro-2H-[1,2′]bipyrazinyl]
IC50 [2]: 1 to 10 µM

CN(C)c1ccc(-c2cncc(N3CCN(c4ccccc4)CC3)n2)cc1 [compound 190, Dimethyl-[4-(4-phenyl-3,4,5,6-tetrahydro-2H-[1,2′]bipyrazinyl-6′-yl)-phenyl]-amine]
IC50 [2]: 1 to 10 µM

N#Cc1ccccc1N1CCN(c2cncc(-c3ccc(Cl)cc3)n2)CC1 [compound 42, 2-[6′-(4-Chloro-phenyl)-2,3,5,6-tetrahydro-[1,2′]bipyrazinyl-4-yl]-benzonitrile]
IC50 [2]: 1 to 10 µM

Clc1ccc(-c2cncc(N3CCN(c4ccncc4)CC3)n2)cc1 [compound 47, 6′-(4-Chloro-phenyl)-4-pyridin-4-yl-3,4,5,6-tetrahydro-2H-[1,2′]bipyrazinyl]
IC50 [2]: 1 to 10 µM

Cc1cccc(-c2cncc(N3CCN(c4ccc(Cl)cc4)CC3)n2)c1 [compound 325, 4-(4-Chloro-phenyl)-6′-m-tolyl-3,4,5,6-tetrahydro-2H-[1,2′]bipyrazinyl]
IC50 [1]: 10 to 100 µM

c1ccc2cc(-c3cncc(N4CCN(c5ccncc5)CC4)n3)ccc2c1 [Comp. 72, 6′-Naphthalen-2-yl-4-pyridin-4-yl-3,4,5,6-tetrahydro-2H-[1,2-′]bipyrazinyl]
IC50 [2]: < 1 µM

Clc1cccc(N2CCN(c3cncc(-c4csc5ccccc45)n3)CC2)c1 [compound 239, 6′-Benzo[b]thiophen-3-yl-4-(3-chloro-phenyl)-3,4,5,6-tetrahydro-2H-[1,2′]bipyrazinyl]
IC50 [1]: 10 to 100 µM

COc1cccc(N2CCN(c3cncc(-c4ccccc4)n3)CC2)c1 [compound 365, 4-(3-Methoxy-phenyl)-6′-phenyl-3,4,5,6-tetrahydro-2H-[1,2′]bipyrazinyl]
IC50 [1]: 10 to 100 µM

FC(F)(F)c1cccc(N2CCN(c3cncc(-c4ccccc4Oc4ccccc4)n3)CC2)c1 [compound 217, 6′-(2-Phenoxy-phenyl)-4-(3-trifluoromethyl-phenyl)-3,4,5,6-tetrahydro-2H-[1,2′]bipyrazinyl]
IC50 [1]: 10 to 100 µM

COc1ccccc1N1CCN(c2cncc(-c3ccccc3C(C)=O)n2)CC1 [compound 240, 1-{2-[4-(2-Methoxy-phenyl)-3,4,5,6-tetrahydro-2H-[1,2′]bipyrazinyl-6′-yl]-phenyl}-ethanone]
IC50 [1]: 10 to 100 µM

CN(C)c1cccc(-c2cncc(N3CCN(c4ccncc4)CC3)n2)c1 [compound 16, Dimethyl-[3-(4-pyridin-4-yl-3,4,5,6-tetrahydro-2H-[1,2′]bipyrazinyl-6′-yl)-phenyl]-amine]
IC50 [2]: 10 to 100 µM

Cc1ccc(-c2cncc(N3CCN(c4ccc(F)cc4F)CC3)n2)cc1 [compound 142, 4-(2,4-Difluoro-phenyl)-6′-p-tolyl-3,4,5,6-tetrahydro-2H-[1,2′]bipyrazinyl]
IC50 [2]: 10 to 100 µM

OCc1ccc(-c2cncc(N3CCN(c4cccc(C(F)(F)F)c4)CC3)n2)cc1 [compound 254, {4-[4-(3-Trifluoromethyl-phenyl)-3,4,5,6-tetrahydro-2H-[1,2′]bipyrazinyl-6′-yl]-phenyl}-methanol]
IC50 [1]: 10 to 100 µM

Cc1ccc(-c2cncc(N3CCN(c4cccc(Cl)c4)CC3)n2)cc1 [compound 237, 4-(3-Chloro-phenyl)-6′-p-tolyl-3,4,5,6-tetrahydro-2H-[1,2′]bipyrazinyl]
IC50 [1]: 10 to 100 µM

CC(=O)c1cccc(-c2cncc(N3CCN(c4cnccn4)CC3)n2)c1 [compound 312, 1-[3-(2′,3′,5′,6′-Tetrahydro-[2,1′;4′,2″]terpyrazin-6-yl)-phenyl]-ethanone]
IC50 [1]: 1 to 10 µM
